PubChem BioAssay AID1963986 (Molecular Pharmacology Branch, DTP, NCI, 2024)
pIC50: −log10 of the molar value.

System: 171881-019-R-J1-PDC tumor spheroid viability
Assay: Anticancer human tumor 171881-019-R-J1-PDC patient-derived invasive breast carcinoma cell line growth inhibition [PI3K]
Details: spheroids with HUVEC and MSC; for pIC50: curve of first compound; for viability, T/C: stronger effect = lower value; active = viability on the fitted dose curve at most 10% of control; inactive = the rest
In short: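 Spheroid viability read-out. Co-cultures contained the tumor line plus HUVEC and human MSCs. Each agent was paired with a PI3K inhibitor (inavolisib, alpelisib, duvelisib, copanlisib) across half-log dilutions starting at clinical Cmax, or at 10 microM when Cmax was unknown.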

[1] = second compound 0.0316 µM, first compound 0.000316 µM
[2] = second compound 0.0316 µM, first compound 0.001 µM
[3] = second compound 0.0316 µM, first compound 0.00316 µM
[4] = second compound 0.0316 µM, first compound 0.01 µM
[5] = second compound 0.0316 µM, first compound 0.0316 µM
[6] = second compound 0.0316 µM, first compound 0.1 µM
[7] = second compound 0.1 µM, first compound 0.000316 µM
[8] = second compound 0.1 µM, first compound 0.001 µM
[9] = second compound 0.1 µM, first compound 0.00316 µM
[10] = second compound 0.1 µM, first compound 0.01 µM
[11] = second compound 0.1 µM, first compound 0.0316 µM
[12] = second compound 0.1 µM, first compound 0.1 µM
[13] = second compound 0.316 µM, first compound 0.000316 µM
[14] = second compound 0.316 µM, first compound 0.001 µM
[15] = second compound 0.316 µM, first compound 0.00316 µM
[16] = second compound 0.316 µM, first compound 0.01 µM
[17] = second compound 0.316 µM, first compound 0.0316 µM
[18] = second compound 0.316 µM, first compound 0.1 µM
[19] = second compound 1 µM, first compound 0.000316 µM
[20] = second compound 1 µM, first compound 0.001 µM
[21] = second compound 1 µM, first compound 0.00316 µM
[22] = second compound 1 µM, first compound 0.01 µM
[23] = second compound 1 µM, first compound 0.0316 µM
[24] = second compound 1 µM, first compound 0.1 µM
[25] = second compound 3.16 µM, first compound 0.000316 µM
[26] = second compound 3.16 µM, first compound 0.001 µM
[27] = second compound 3.16 µM, first compound 0.00316 µM
[28] = second compound 3.16 µM, first compound 0.01 µM
[29] = second compound 3.16 µM, first compound 0.0316 µM
[30] = second compound 3.16 µM, first compound 0.1 µM
[31] = second compound 10 µM, first compound 0.000316 µM
[32] = second compound 10 µM, first compound 0.001 µM
[33] = second compound 10 µM, first compound 0.00316 µM
[34] = second compound 10 µM, first compound 0.01 µM
[35] = second compound 10 µM, first compound 0.0316 µM
[36] = second compound 10 µM, first compound 0.1 µM
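Note: spheroids exposed to compound for 7 days before viability read.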
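Throughout, for viability, T/C: 100% = DMSO vehicle-treated spheroids.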

CC(=O)c1c(C)c2cnc(Nc3ccc(N4CCNCC4)cn3)nc2n(C2CCCC2)c1=O + Cc1nc(NC(=O)N2CCCC2C(N)=O)sc1-c1ccnc(C(C)(C)C(F)(F)F)c1
active: viability, T/C [31] 4.32% | viability, T/C [32] 3.84% | viability, T/C [33] 4.16% | viability, T/C [34] 4.4% | viability, T/C [35] 5.31% | viability, T/C [36] 4.87%
> 9.50: pIC50 (second compound 1 µM) | pIC50 (second compound 3.16 µM) | pIC50 (second compound 10 µM)
inactive: viability, T/C [1] 106% | viability, T/C [2] 96.3% | viability, T/C [3] 91.2% | viability, T/C [4] 101% | viability, T/C [5] 105% | viability, T/C [6] 88.6% | viability, T/C [7] 78.9% | viability, T/C [8] 79% | viability, T/C [9] 84.8% | viability, T/C [10] 88.9% | viability, T/C [11] 88.3% | viability, T/C [12] 82.6% | viability, T/C [13] 57.9% | viability, T/C [14] 61.5% | viability, T/C [15] 54.3% | viability, T/C [16] 63.2% | viability, T/C [17] 63.1% | viability, T/C [18] 63.2% | viability, T/C [19] 33% | viability, T/C [20] 33.7% | viability, T/C [21] 37.3% | viability, T/C [22] 37.6% | viability, T/C [23] 43.8% | viability, T/C [24] 38.8% | viability, T/C [25] 14.1% | viability, T/C [26] 14.3% | viability, T/C [27] 16.5% | viability, T/C [28] 17.3% | viability, T/C [29] 18% | viability, T/C [30] 18.4%
< 7.00: pIC50 (second compound 0.0316 µM) | pIC50 (second compound 0.1 µM) | pIC50 (second compound 0.316 µM)

CC(C)n1nc(-c2ccc3oc(N)nc3c2)c2c(N)ncnc21 + Cc1nc(NC(=O)N2CCCC2C(N)=O)sc1-c1ccnc(C(C)(C)C(F)(F)F)c1
inactive: viability, T/C [1] 93.8% | viability, T/C [2] 78% | viability, T/C [3] 63.1% | viability, T/C [4] 46.8% | viability, T/C [5] 16.1% | viability, T/C [7] 79.6% | viability, T/C [8] 74.2% | viability, T/C [9] 52.7% | viability, T/C [10] 35.6% | viability, T/C [11] 13.1% | viability, T/C [13] 52% | viability, T/C [14] 44% | viability, T/C [15] 38% | viability, T/C [16] 22.4% | viability, T/C [19] 31.4% | viability, T/C [20] 26.7% | viability, T/C [21] 18.5% | viability, T/C [22] 10.9% | viability, T/C [25] 11.9% | viability, T/C [26] 11.9%
9.42: pIC50 (second compound 0.316 µM)
> 9.50: pIC50 (second compound 1 µM) | pIC50 (second compound 3.16 µM) | pIC50 (second compound 10 µM)
8.18: pIC50 (second compound 0.0316 µM)
8.38: pIC50 (second compound 0.1 µM)
active: viability, T/C [6] 3.37% | viability, T/C [12] 4.36% | viability, T/C [17] 8.1% | viability, T/C [18] 2.79% | viability, T/C [23] 4.74% | viability, T/C [24] 2.58% | viability, T/C [27] 8.19% | viability, T/C [28] 5.31% | viability, T/C [29] 3.23% | viability, T/C [30] 2.15% | viability, T/C [31] 3.18% | viability, T/C [32] 3.44% | viability, T/C [33] 2.64% | viability, T/C [34] 2.7% | viability, T/C [35] 2.05% | viability, T/C [36] 1.46%
